Patent publication US11826352B2, “Edaravone suspension for oral administration” (MITSUBISHI TANABE PHARMA CORPORATION, priority 2018, dated 2023)

Key:
[1] = Transmission scattering light intensity test; format: physicochemical; settings: 40 mL 0.1% (w/v) additive solution + 840 mg edaravone particles; for Dispersion State of Edaravone: stirred 30 minutes or more; for Transmission Scattering light Intensity ΔT %: TURBISCAN Tower, 25° C., height 39-40 mm, after 10 minutes
Experimental: Further, here, the transmission scattering light intensity means a value obtained after 10 minutes after starting a measurement of a transmission scattering light intensity, the measurement being performed by filling 20 mL of the above liquid in a cylindrical sample bottle (inner diameter: 25 mm×outer diameter: 27.5 mm×height: 72 mm) and by measuring the transmission scattering light intensity at a height of 39-40 mm of the sample bottle using a TURBISCAN Tower (manufactured Formulaction) (25° C.).
0.1% (w/v) aqueous solutions of drug product additives described in the following table that are substances having a function capable of dispersing solid particles in a liquid were prepared at a room temperature.
40 mL of each of the aqueous solutions of the additives was added to 840 mg of edaravone particles (edaravone powder, D50: 37 μm, D90: 143 μm) and the mixture was stirred using a stirrer for 30 minutes or more, and a dispersed state of the edaravone particles was confirmed.
Further, 20 mL of the dispersion liquid obtained above was filled into a sample bottle (inner diameter: 25 mm×outer diameter: 27.5 mm×height: 72 mm), and measurement of a transmission scattering light intensity ΔT % at a height of 39-40 mm of the sample bottle was started using a TURBISCAN Tower (manufactured by Formulaction) (with a temperature set to 25° C.), and a value obtained after 10 minutes after the start of the measurement was defined as the transmission scattering light intensity ΔT % for each additive. The transmission scattering light intensities ΔT % of the additives and the dispersion state of the edaravone particles in the additive solutions are shown in the following table.

[2] = Contact angle test; format: physicochemical; settings: edaravone saturated aqueous solution with 0.1% (w/v) additive on edaravone tablet; 1 μL, after 3.1 seconds
Experimental: Here, “80 degrees or less” means a range of 0-80 degrees. […] Here, the edaravone tablet refers to an edaravone tablet obtained by compression-molding 120 mg of edaravone (D50: 37 D90: 143 μm) in a flat punch having a diameter of 8 mm at a tableting pressure of 800 kg, and measurement of the contact angle refers to a case where the contact angle is measured using a contact angle measuring device (CAX-150 manufactured by Kyowa Interface Science) under the following conditions. • Syringe used: glass, 1 mL • Needle: 23 gauge • Liquid volume: 1 μL • Measurement time: after 3.1 seconds
120 mg of an edaravone drug substance (D50: 37 μm, D90: 143 μm) was compression-molded using a single-punch tableting machine (Compaction Analyzer) (punch: flat punch having a diameter of 8 mm; tableting pressure: 800 kgf), and an edaravone tablet for contact angle measurement was obtained.
Edaravone saturated aqueous solutions in which drug product additives described in the following table that are substances having a function capable of dispersing solid particles in a liquid were dissolved 0.1% (w/v) therein were prepared at a room temperature, and contact angles with respect to the edaravone tablet prepared above were measured using a contact angle measurement device (Kyowa Interface Science, Inc., CAX-150). […]

Row | Dispersion State of Edaravone [1] | Transmission Scattering light Intensity ΔT % [1] | Contact Angle [2] | Compound
1 | not dispersed | 0.000% | 83.3 degrees | OC[C@@H](O)[C@@H](O)[C@H](O)[C@@H](O)CO [D-sorbitol]
2 | dispersed | 6.151% | 53.1 degrees | Polysorbate 80
